Assay results reported in patent publication US12152077B1, “Immunotherapy targeting tumor neoantigenic peptides” (INSTITUT CURIE, priority 2019, dated 2024).
Entries after “also recorded” stand apart in the source; their conditions may differ.

Columns and labels:
[1] = system: CD8+ T cells from HLA-A2+ healthy donors; test: Priming of naive CTLs by peptide-loaded autologous moDCs (immunogenicity, tetramer staining); type: cell-based, human; details: for specific CD8+ T expansions (immunogenicity): total of 6 donors, FIG. 11A; for expansion of specific CD8+ T cells (tetramer positive): one donor, versus co-culture without peptides
Protocol: Priming of naïve CTLs. PBMCs were obtained by Ficoll gradient separation from HLA-A2+ healthy blood donors. CD14+, CD4+ and CD8+ cells were purified by positive selection using magnetic beads (Miltenyi Biotec). While CD4+ and CD8+ T cells were cryopreserved until the experiment day, CD14+ fraction was cultured in the presence of IL-4 (50 ng/mL) and GM-CSF (10 ng/ml) at 10^6 cells/mL during 5 days to obtain moDCs. After this period of time, the moDCs were maturated with LPS and incubated with synthetic ER-derived peptides at a final concentration of 1 μg/mL for 2 hours. Finally, peptide-loaded moDCs were co-cultured with autologous CD4+ and CD8+ T cells in culture medium supplemented with IL-2 (10 U/ml) and IL-7 (100 ng/ml). The ER-derived peptide stimulation of specific CD8+ CTL populations was assessed by MHC-I tetramer staining by flow cytometry using a combination of two-color tetramer for each peptide.
(§1) Tetramer Staining. Cells were resuspended in PBS, stained with Live/Dead Aqua-405 nm (ThermoFisher) during 20 minutes at 4° C. and washed once. After that, cells were resuspended in PBS-1% BSA containing the mix of SA-coupled tetramers and incubated in the dark at room temperature during 20 minutes. Without further washing, surface antibodies were added in PBS-1% BSA and cells were incubated 20 minutes in the dark at 4° C. Surface antibodies were a combination of anti-CD3-BV650+ anti-CD8-PECy7 in combination with anti-CCR7-AF700+ anti-CD45RA-BUV395 when required. Finally, cells were washed twice and resuspended in FACS buffer for flow cytometry analysis.
The following step after binding validation to HLA-A2 allele, was to test the immunogenicity of predicted peptides. Priming assays were thus performed to test the ability of identified peptides to expand specific cytotoxic T cells. PBMCs from HLA-A2+ healthy donors were used to generate monocyte derived-DCs (moDCs). After loading the moDCs with a mix of synthetic peptides, autologous co-culture was performed with CD4+ and CD8+ T cells. Finally, the expansion of specific CD8+ T cells was analysed by flow cytometry using two-colours tetramer staining. As a control of specific expansion, the co-culture was performed in the absence of peptides. […] The same experiment was performed in order to evaluate the response in additional 5 donors.

[2] = system: TILs derived from LUAD patients; test: Tetramer staining of expanded tumor infiltrating lymphocytes (TILs); type: cell-based, human; details: TILs expanded with peptide mix + IL-2 or IL-2 only; HLA-A2+ LUAD patients
Protocol: as §1
Tumor infiltrating lymphocytes (TILs) cultures. Tumor tissue was cut into small pieces (1-3 mm3 size, 6-12 pieces maximum). Each tumor fragment was transferred into individual wells from 24-well plates and cultured in a final volume of 2 ml RPMI 10% Human Serum+IL-2 6000 IU/ml. Cells were feed/split as necessary during 15-20 days and cryopreserve or analyzed for tetramer staining.
In a first set of experiments tumor infiltrating lymphocytes (TILs) expanded with a mix of TE-derived peptides and Il-2, or only with Il-2, were analyzed by tetramer staining. As is shown in FIGS. 13A and B, we found CD8+ T-cells cells recognizing fusion-derived peptides in TILs derived from LUAD patients.

Sequence	specific CD8+ T expansions (immunogenicity) [1]	expansion of specific CD8+ T cells (tetramer positive) [1]	CD8+ T cells recognizing peptide in TILs (tetramer positive) [2]
LLHLESFLV	specific CD8+ T expansions		
LLTSWHLYL	specific CD8+ T expansions		
LLDRFGYHV	specific CD8+ T expansions		
VLLTNTIWL	specific CD8+ T expansions		
AMDGKELSL	specific CD8+ T expansions		
MLMKTVWQA	specific CD8+ T expansions		
RLLHLESFL		expand specific CD8+ T cells	
GLLNISHTA	specific CD8+ T expansions		
SLMQSGSPV	specific CD8+ T expansions		
ILSGYGPCV	specific CD8+ T expansions		
YLWTTFFPL	specific CD8+ T expansions	expand specific CD8+ T cells	
FLIVAEILI		expand specific CD8+ T cells	
RQAPGFHHA	specific CD8+ T expansions		
MLVTWELAL	specific CD8+ T expansions		
RLADHLSFC	specific CD8+ T expansions; also recorded: immunogenic	expand specific CD8+ T cells	
FLGTRVTRV	specific CD8+ T expansions		
ILHSLVTGV	specific CD8+ T expansions		
ILTASITSI	specific CD8+ T expansions		
LLGETKVYV	specific CD8+ T expansions	expand specific CD8+ T cells	
GLPSHVELA	specific CD8+ T expansions; also recorded: immunogenic		found TILs recognizing
AILPKANTV	specific CD8+ T expansions	expand specific CD8+ T cells	
